Measurements published in patent publication US20070049593A1 (priority 2004, published 2007).
pIC50: −log10 of the molar value. Counter-ions that a name gives are not always drawn.

Each compound was assayed against T1, HCV polymerase (Hepatitis C virus genotype 1b, UniProt P26663) (assay: biochemical). Conditions: not given.
T1 construct: a region encoding NS5B (J Virol 1991 March, 65(3), 1105-13, 544 amino acids after deletion of 47 amino acids on the C-terminal); 6xHis (C); made in house; host or cells: Escherichia coli
T1 sequence (P26663 2420-2963): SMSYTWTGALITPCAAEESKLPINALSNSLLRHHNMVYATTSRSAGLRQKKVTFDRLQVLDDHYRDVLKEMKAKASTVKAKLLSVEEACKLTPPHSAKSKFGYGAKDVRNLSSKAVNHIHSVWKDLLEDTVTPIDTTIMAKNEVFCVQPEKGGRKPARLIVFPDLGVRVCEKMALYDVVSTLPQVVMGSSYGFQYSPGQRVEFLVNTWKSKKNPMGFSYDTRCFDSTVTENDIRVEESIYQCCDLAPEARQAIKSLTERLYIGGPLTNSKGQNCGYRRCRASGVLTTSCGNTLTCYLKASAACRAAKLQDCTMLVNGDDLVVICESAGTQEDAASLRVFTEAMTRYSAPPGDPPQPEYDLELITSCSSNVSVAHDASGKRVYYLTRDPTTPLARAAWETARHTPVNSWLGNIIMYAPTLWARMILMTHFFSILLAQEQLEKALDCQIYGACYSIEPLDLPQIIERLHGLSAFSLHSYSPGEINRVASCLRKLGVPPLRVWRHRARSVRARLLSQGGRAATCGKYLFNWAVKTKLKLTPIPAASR
Design: species or system HCV BK strain
Outline: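 His-tagged NS5B (BK strain, 47-aa C-terminal deletion, E. coli-expressed) at 0.5 μg/ml copied 5 μg/ml run-off RNA bearing the HCV 3′ UTR with 2 μM UTP plus [3H]UTP, 50 μM ATP/GTP, in pH 7.5 Tris with 5 mM MgCl2, 25 °C, 90 min. TCA-precipitated RNA was counted and IC50 calculated.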
In the case of `COC(=O)c1ccc2c(C3CCCCC3)c3n(c2c1)CCOc1c(OCC(=O)O)cccc1-3` [Example 2-473, methyl 4-carboxymethoxy-12-cyclohexyl-6,7-dihydro-5-oxa-7a-azadibenzo[a,e]azulene-9-carboxylate], the pIC50 was 6.00 to 7.00. `COc1ccc2c(c1)OCCn1c-2c(C2CCCCC2)c2ccc(C(=O)NC3(c4nc5ccc(OCc6ccccc6)cc5[nH]4)CCC3)cc21` [Example 2-420, N-[1-(6-benzyloxy-1H-benzimidazol-2-yl)cyclobutyl]-12-cyclohexyl-3-methoxy-6,7-dihydro-5-oxa-7a-azadibenzo[a,e]azulene-9-carboxamide] showed a pIC50 greater than 7.00. With `CC(C)OCC1CCCN(CCN2CCn3c(c(C4CCCCC4)c4ccc(C(=O)O)cc43)-c3ccccc32)C1` (stereo not drawn) [Example 1-405, 13-cyclohexyl-5-[2-(3-isopropoxymethylpiperidin-1-yl)ethyl]-6,7-dihydro-5H-benzo[5,6][1,4]diazepino[7,1-a]indole-10-carboxylic acid dihydrochloride] the pIC50 was greater than 7.00. `NC(=O)c1ccc2c(c1)c1c(n2C2CCCCC2)-c2ccc(Cl)cc2N(CCN2CCCCC2)CC1` [Example 10-3, 3-chloro-12-cyclohexyl-5-[2-(piperidin-1-yl)ethyl]-5,6,7,12-tetrahydrobenzo[2,3]azepino[4,5-b]indole-9-carboxamide] was tested, and the pIC50 was greater than 7.00. `Cc1ccc2c(c1)N(CCN1CCC[C@@H](CCN(C)C)C1)CCn1c-2c(C2CCCCC2)c2ccc(C(=O)O)cc21` [Example 1-555, 13-cyclohexyl-5-{2-[(S)-3-(2-dimethylaminoethyl)piperidin-1-yl]ethyl}-3-methyl-6,7-dihydro-5H-benzo[5,6][1,4]diazepino[7,1-a]indole-10-carboxylic acid dihydrochloride] gave a pIC50 greater than 7.00. For `CCc1ccc2c(c1)N(CCN1CCCC1)CCn1c-2c(C2CCCCC2)c2ccc(C(=O)O)cc21` [Example 1-360, 13-cyclohexyl-3-ethyl-5-[2-(pyrrolidin-1-yl)ethyl]-6,7-dihydro-5H-benzo[5,6][1,4]diazepino[7,1-a]indole-10-carboxylic acid monohydrochloride], the pIC50 was greater than 7.00. `CC(=O)N(CCN1CCCCC1)c1cccc2c1OCCn1c-2c(C2CCCCC2)c2ccc(C(=O)O)cc21` [Example 2-485, 4-{N-acetyl-N-[2-(piperidin-1-yl)ethyl]amino}-12-cyclohexyl-6,7-dihydro-5-oxa-7a-azadibenzo[a,e]azulene-9-carboxylic acid] showed a pIC50 greater than 7.00. Compound `CC(C)(C)OC(=O)N1CCCC(CN2CCn3c(c(C4CCCCC4)c4ccc(C(=O)O)cc43)-c3ccccc32)C1` (stereo not drawn) [Example 1-152, 5-(1-tert-butoxycarbonylpiperidin-3-ylmethyl)-13-cyclohexyl-6,7-dihydro-5H-benzo[5,6][1,4]diazepino[7,1-a]indole-10-carboxylic acid] has a pIC50 greater than 7.00. `CC(C)N1CCCC(CCCN2CCn3c(c(C4CCCCC4)c4ccc(C(=O)O)cc43)-c3ccc(Cl)cc32)C1` (stereo not drawn) [Example 1-396, 3-chloro-13-cyclohexyl-5-[3-(1-isopropylpiperidin-3-yl)propyl]-6,7-dihydro-5H-benzo[5,6][1,4]diazepino[7,1-a]indole-10-carboxylic acid dihydrochloride] was tested, and the pIC50 was greater than 7.00. `CCN(CC)CC(O)CN1CCn2c(c(C3CCCCC3)c3ccc(C(=O)O)cc32)-c2ccc(Cl)cc21` (stereo not drawn) [Example 1-503, 3-chloro-13-cyclohexyl-5-(3-diethylamino-2-hydroxypropyl)-6,7-dihydro-5H-benzo[5,6][1,4]diazepino[7,1-a]indole-10-carboxylic acid dihydrochloride] showed a pIC50 greater than 7.00. Compound `CC(C)(NC(=O)c1ccc2c(C3CCCCC3)c3n(c2c1)CCOc1ccccc1-3)C1CCC(C(=O)O)CC1` (stereo not drawn) [Example 2-208, 4-{1-[(12-cyclohexyl-6,7-dihydro-5-oxa-7a-azadibenzo[a,e]azulene-9-carbonyl)amino]-1-methylethyl}cyclohexanecarboxylic acid] has a pIC50 of 6.00 to 7.00. `COC(C)(C)[C@@H]1CCCN(CCN2CCn3c(c(C4CCCCC4)c4ccc(C(=O)O)cc43)-c3ccc(C)cc32)C1` [Example 1-541, 13-cyclohexyl-5-{2-[(R)-3-(1-methoxy-1-methylethyl)piperidin-1-yl]ethyl}-3-methyl-6,7-dihydro-5H-benzo[5,6][1,4]diazepino[7,1-a]indole-10-carboxylic acid dihydrochloride] was tested, and the pIC50 was greater than 7.00. For `CC1CCN(C(=O)CN2CCn3c(c(C4CCCCC4)c4ccc(C(=O)O)cc43)-c3ccccc32)CC1` [Example 1-72, 13-cyclohexyl-5-[2-(4-methylpiperidin-1-yl)-2-oxoethyl]-6,7-dihydro-5H-benzo[5,6][1,4]diazepino[7,1-a]indole-10-carboxylic acid monohydrochloride], the pIC50 was greater than 7.00. Compound `CC[C@@H]1CCCN(CCN2CCn3c(c(C4CCCCC4)c4ccc(C(=O)O)cc43)-c3ccc(Cl)cc32)C1` [Example 1-336, 3-chloro-13-cyclohexyl-5-[2-((R)-3-ethylpiperidin-1-yl)ethyl]-6,7-dihydro-5H-benzo[5,6][1,4]diazepino[7,1-a]indole-10-carboxylic acid dihydrochloride] has a pIC50 greater than 7.00. In the case of `COC(=O)c1ccc2nc(NC(=O)c3ccc4c(C5CCCCC5)c5n(c4c3)CCOc3ccccc3-5)[nH]c2c1` [Example 2-266, methyl 2-[(12-cyclohexyl-6,7-dihydro-5-oxa-7a-azadibenzo[a,e]azulene-9-carbonyl)amino]-3H-benzimidazole-5-carboxylate], the pIC50 was 6.00 to 7.00. Work on `O=C(O)c1ccc2c(C3CCCCC3)c3n(c2c1)CCN(CCc1ccccc1)c1ccccc1-3` [Example 1-41, 13-cyclohexyl-5-phenethyl-6,7-dihydro-5H-benzo[5,6][1,4]diazepino[7,1-a]indole-10-carboxylic acid monohydrochloride] yielded a pIC50 greater than 7.00. In the case of `COc1ccc2c(c1)CN(C)CCn1c-2c(C2CCCCC2)c2ccc(C(=O)O)cc21` [Example 11-6, 14-cyclohexyl-3-methoxy-6-methyl-5,6,7,8-tetrahydrobenzo[6,7][1,4]diazocino[8,1-a]indole-11-carboxylic acid monohydrochloride], the pIC50 was greater than 7.00. Compound `CC(C)(NC(=O)c1ccc2c(C3CCCCC3)c3n(c2c1)CCOc1ccccc1-3)C(=O)N1CCOCC1` [Example 2-289, N-[1,1-dimethyl-2-(morpholin-4-yl)-2-oxoethyl]-12-cyclohexyl-6,7-dihydro-5-oxa-7a-azadibenzo[a,e]azulene-9-carboxamide] has a pIC50 greater than 7.00. With `CCN1CCN(C(=O)CN2CCn3c(c(C4CCCCC4)c4ccc(C(N)=O)cc43)-c3ccccc32)CC1` [Example 1-55, 13-cyclohexyl-5-[2-(4-ethylpiperazin-1-yl)-2-oxoethyl]-6,7-dihydro-5H-benzo[5,6][1,4]diazepino[7,1-a]indole-10-carboxamide] the pIC50 was greater than 7.00. `CC[C@@H]1CCCN(CCN2CCn3c(c(C4CCCCC4)c4ccc(C(=O)O)cc43)-c3ccc(C)cc32)C1` [Example 1-420, 13-cyclohexyl-5-[2-((R)-3-ethylpiperidin-1-yl)ethyl]-3-methyl-6,7-dihydro-5H-benzo[5,6][1,4]diazepino[7,1-a]indole-10-carboxylic acid dihydrochloride] gave a pIC50 greater than 7.00. For `CN1CCn2c(c(C3CCCCC3)c3ccc(C(=O)O)cc32)-c2ccc(OCCCN3CCCCC3)cc21` [Example 1-496, 13-cyclohexyl-5-methyl-3-[3-(piperidin-1-yl)propoxy]-6,7-dihydro-5H-benzo[5,6][1,4]diazepino[7,1-a]indole-10-carboxylic acid dihydrochloride], the pIC50 was greater than 7.00. In the case of `CC(C)N1CCC(CCN2CCn3c(c(C4CCCCC4)c4ccc(C(=O)O)cc43)-c3ccc(Cl)cc32)CC1` [Example 1-240, 3-chloro-13-cyclohexyl-5-[2-(1-isopropylpiperidin-4-yl)ethyl]-6,7-dihydro-5H-benzo[5,6][1,4]diazepino[7,1-a]indole-10-carboxylic acid dihydrochloride], the pIC50 was greater than 7.00. Compound `CC(C)N(CCCN1CCn2c(c(C3CCCCC3)c3ccc(C(=O)O)cc32)-c2ccc(Cl)cc21)C(C)C` [Example 1-429, 3-chloro-13-cyclohexyl-5-(3-diisopropylaminopropyl)-6,7-dihydro-5H-benzo[5,6][1,4]diazepino[7,1-a]indole-10-carboxylic acid dihydrochloride] has a pIC50 greater than 7.00. `O=C(O)c1ccc2c(C3CCCCC3)c3n(c2c1)CCOc1c(Nc2ccccc2)cccc1-3` [Example 2-324, 12-cyclohexyl-4-phenylamino-6,7-dihydro-5-oxa-7a-azadibenzo[a,e]azulene-9-carboxylic acid] showed a pIC50 greater than 7.00. `COC(=O)Nc1ccc(C[C@H](NC(=O)c2ccc3c(C4CCCCC4)c4n(c3c2)CCOc2cc(OC)ccc2-4)C(=O)OC)cc1` [Example 2-362, methyl (S)-2-[(12-cyclohexyl-3-methoxy-6,7-dihydro-5-oxa-7a-azadibenzo[a,e]azulene-9-carbonyl)amino]-3-(4-methoxycarbonylaminophenyl)propionate] showed a pIC50 greater than 7.00. With `COC(=O)c1ccc2nc(C3(NC(=O)c4ccc5c(C6CCCCC6)c6n(c5c4)CCOc4ccccc4-6)CCN(C)CC3)[nH]c2c1` [Example 2-313, methyl 2-{4-[(12-cyclohexyl-6,7-dihydro-5-oxa-7a-azadibenzo[a,e]azulene-9-carbonyl)amino]-1-methylpiperidin-4-yl]-3H-benzimidazole-5-carboxylate] the pIC50 was greater than 7.00.

Same assay, conditions: 25° C., 90 min; [5,6-3H]UTP incorporation into RNA; read-out: HCV polymerase inhibitory activity IC50
With `CC(C)COc1ccc2c(c1)N(CCN1CCCCC1)CCn1c-2c(C2CCCCC2)c2ccc(C(=O)O)cc21` [Example 1-373, 13-cyclohexyl-3-isobutoxy-5-[2-(piperidin-1-yl)ethyl]-6,7-dihydro-5H-benzo[5,6][1,4]diazepino[7,1-a]indole-10-carboxylic acid dihydrochloride] the pIC50 was greater than 7.00.
